This passage reports IC50 results from patent publication US20230131535A1, “ARYLMETHYLENE AROMATIC COMPOUNDS AS Kv1.3 POTASSIUM SHAKER CHANNEL BLOCKERS” (D. E. Shaw Research, LLC, priority 2019, published 2023).

The structures appear in SMILES notation. pIC50: −log10 of the molar value. Where two headings read alike, the source gives them in different places.

The target in one experiment is T1, Kv1.3 potassium channel (Homo sapiens, UniProt P22001).
T1 construct: expressed in transfected cells
Description: Kv1.3 potassium channel blocker activity, automated whole-cell patch clamp (Patchliner). The following applies: CHO-K1 cells stably expressing Kv1.3, whole cell current, pulses -90 mV to +40 mV, read-out: Kv1.3_IC50. Type of experiment: cell-based. As to the method: Example 67. Evaluation of Kv1.3 Potassium Channel Blocker Activities
The assay described below is used to evaluate the disclosed compound's activities as Kv1.3 potassium channel blockers.
CHO-K1 cells stably expressing Kv1.3 were grown in DMEM containing 10% heat-inactivated FBS, 1 mM Sodium Pyruvate, 2 mM L-Glutamine and G418 (500 μg/ml). Cells were grown in culture flasks at 37° C. in a 5% CO2-humidified incubator.
(§1) The cells were bathed in an extracellular solution containing 140 mM NaCl, 4 mM KCl, 2 mM CaCl2), 1 mM MgCl2, 5 mM Glucose, 10 mM HEPES; pH adjusted to 7.4 with NaOH; 295-305 mOsm. The internal solution contained 50 mM KCl, 10 mM NaCl, 60 mM KF, 20 mM EGTA, 10 mM HEPES; pH adjusted to 7.2 with KOH; 285 mOsm. All compounds were dissolved in DMSO at 30 mM. Compound stock solutions were freshly diluted with external solution to concentrations of 30 nM, 100 nM, 300 nM, 1 μM, 3 μM, 10 μM, 30 μM and 100 μM. The highest content of DMSO (0.3%) was present in 100 μM.
The currents were evoked by applying 100 ms depolarizing pulses from −90 mV (holding potential) to +40 mV were applied with 0.1 Hz frequency. Control (compound-free) and compound pulse trains for each compound concentration applied contained 20 pulses. 10 second breaks were used between pulse trains (see Table 4 below).
Whole cell current recordings and compound application were enabled by means of an automated patch clamp platform Patchliner (Nanion Technologies GmbH). EPC 10 patch clamp amplifier (HIEKA Elektronik Dr. Schulze GmbH) along with Patchmaster software (HIEKA Elektronik Dr. Schulze GmbH) was used for data acquisition. Data were sampled at 10 kHz without filtering. Passive leak currents were subtracted online using a P/4 procedure (HEKA Elektronik Dr. Schulze GmbH). Increasing compound concentrations were applied consecutively to the same cell without washouts in between. Total compound incubation time before the next pulse train was not longer than 10 seconds. Peak current inhibition was observed during compound equilibration.
(§2) AUC and peak values were obtained with Patchmaster (HEKA Elektronik Dr. Schulze GmbH). To determine IC50, the last single pulse in the pulse train corresponding to a given compound concentration was used. Obtained AUC and peak values in the presence of compound were normalized to control values in the absence of compound. Using Origin (OridinLab), IC50 was derived from data fit to Hill equation: Icompound/Icontrol=(100−A)/(1+([compound]/IC50)nH)+A, where IC50 value is the concentration at which current inhibition is half-maximal, [compound] is the applied compound concentration, A is the fraction of current that is not blocked and nH is the Hill coefficient.

The target of another experiment is T2, hERG channel (Homo sapiens, UniProt Q12809).
T2 construct: expressed in transfected cells
Kind of experiment: hERG electrophysiology, automated whole-cell patch clamp (Patchliner). Type of experiment: cell-based. The following applies: CHO-K1 cells stably expressing hERG, whole cell current, tail current protocol, read-out: hERG_IC50. Here is the method:
Example 68. Evaluation of hERG Activities
This assay is used to evaluate the disclosed compounds' inhibition activities against the hERG channel.
CHO-K1 cells stably expressing hERG were grown in Ham's F-12 Medium with Glutamine containing 10% heat-inactivated FBS, 1% Penicillin/Streptomycin, Hygromycin (100 μg/ml) and G418 (100 μg/ml). Cells were grown in culture flasks at 37° C. in a 5% CO2-humidified incubator.
as §1
The voltage protocol (see Table 5) was designed to simulate voltage changes during a cardiac action potential with a 300 ms depolarization to +20 mV (analogous to the plateau phase of the cardiac action potential), a repolarization for 300 ms to −50 mV (inducing a tail current) and a final step to the holding potential of −80 mV. The pulse frequency was 0.3 Hz. Control (compound-free) and compound pulse trains for each compound concentration applied contained 70 pulses.
Whole cell current recordings and compound application were enabled by means of an automated patch clamp platform Patchliner (Nanion). EPC 10 patch clamp amplifier (HEKA) along with Patchmaster software (HEKA Elektronik Dr. Schulze GmbH) was used for data acquisition. Data were sampled at 10 kHz without filtering. Increasing compound concentrations were applied consecutively to the same cell without washouts in between.
as §2, with “PEAK” for “peak”, “IC50” for “IC50,”, “IC50” for “IC50 value”

T1 sequence (P22001 whole entry): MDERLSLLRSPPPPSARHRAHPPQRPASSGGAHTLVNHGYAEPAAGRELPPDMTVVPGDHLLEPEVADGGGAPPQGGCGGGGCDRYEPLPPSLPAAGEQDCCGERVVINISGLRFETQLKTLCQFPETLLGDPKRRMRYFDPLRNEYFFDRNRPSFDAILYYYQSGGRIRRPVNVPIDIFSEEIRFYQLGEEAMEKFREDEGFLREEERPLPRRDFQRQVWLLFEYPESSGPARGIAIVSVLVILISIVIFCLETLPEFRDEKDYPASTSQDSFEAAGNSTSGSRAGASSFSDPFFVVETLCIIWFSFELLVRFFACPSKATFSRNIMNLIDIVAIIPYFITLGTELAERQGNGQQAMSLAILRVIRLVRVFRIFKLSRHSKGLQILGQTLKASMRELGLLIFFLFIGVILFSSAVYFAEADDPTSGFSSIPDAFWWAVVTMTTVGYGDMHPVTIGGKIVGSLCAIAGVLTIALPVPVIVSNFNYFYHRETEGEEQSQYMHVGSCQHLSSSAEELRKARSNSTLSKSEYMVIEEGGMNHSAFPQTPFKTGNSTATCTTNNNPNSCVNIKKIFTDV
T2 sequence (Q12809 whole entry): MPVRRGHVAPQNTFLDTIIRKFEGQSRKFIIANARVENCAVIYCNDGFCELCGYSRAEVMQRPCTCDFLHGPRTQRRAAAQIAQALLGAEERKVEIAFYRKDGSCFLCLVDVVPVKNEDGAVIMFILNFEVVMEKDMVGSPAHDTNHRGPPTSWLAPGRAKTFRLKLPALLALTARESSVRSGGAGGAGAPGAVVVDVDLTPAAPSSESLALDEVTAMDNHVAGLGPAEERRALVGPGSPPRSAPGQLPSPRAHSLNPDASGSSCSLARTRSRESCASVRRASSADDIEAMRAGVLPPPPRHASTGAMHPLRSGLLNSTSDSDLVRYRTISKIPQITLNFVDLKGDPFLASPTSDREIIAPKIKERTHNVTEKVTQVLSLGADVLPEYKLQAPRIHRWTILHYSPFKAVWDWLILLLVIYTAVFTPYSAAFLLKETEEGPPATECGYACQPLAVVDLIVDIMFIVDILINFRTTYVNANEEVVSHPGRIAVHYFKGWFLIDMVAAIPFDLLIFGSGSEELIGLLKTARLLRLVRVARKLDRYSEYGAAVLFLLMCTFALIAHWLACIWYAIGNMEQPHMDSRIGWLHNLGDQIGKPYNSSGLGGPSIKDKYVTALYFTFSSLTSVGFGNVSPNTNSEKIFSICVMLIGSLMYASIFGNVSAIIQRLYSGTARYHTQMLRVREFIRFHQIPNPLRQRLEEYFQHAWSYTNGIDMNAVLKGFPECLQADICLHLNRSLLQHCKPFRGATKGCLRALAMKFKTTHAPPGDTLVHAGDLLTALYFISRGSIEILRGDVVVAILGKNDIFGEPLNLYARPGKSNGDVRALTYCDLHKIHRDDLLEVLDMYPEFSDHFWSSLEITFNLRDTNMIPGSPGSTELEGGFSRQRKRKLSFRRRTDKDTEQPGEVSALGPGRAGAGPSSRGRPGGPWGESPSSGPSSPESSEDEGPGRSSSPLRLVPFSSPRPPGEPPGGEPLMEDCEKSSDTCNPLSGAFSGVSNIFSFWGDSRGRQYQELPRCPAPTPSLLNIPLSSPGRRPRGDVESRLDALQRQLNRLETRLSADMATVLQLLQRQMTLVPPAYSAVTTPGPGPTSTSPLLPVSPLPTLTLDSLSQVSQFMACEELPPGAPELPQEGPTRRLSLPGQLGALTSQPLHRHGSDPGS

Consider `CN1CC(C(=O)NC(c2ccncc2)c2c(O)ccc(Cl)c2Cl)C1` (stereo not drawn) [Compound 73, N-[(2,3-dichloro-6-hydroxyphenyl)(pyridin-4-yl)methyl]-1-methylazetidine-3-carboxamide], for which the figures for the pIC50 at Kv1.3 potassium channel (Table 6) and on hERG channel (Table 6) were more than 6.00 and less than 4.52, respectively.
Take `NCc1cc(C(O)c2c(O)ccc(Cl)c2Cl)ccn1` (stereo not drawn) [Compound 28, 2-[[2-(aminomethyl)pyridin-4-yl](hydroxy)methyl]-3,4-dichlorophenol]: the figures for the pIC50 at Kv1.3 potassium channel (Table 6) and at hERG channel (Table 6) were more than 6.00 and less than 4.52, respectively.
For `CC(=O)CC(c1ccncc1)c1c(O)ccc2ccccc12` (stereo not drawn) [Compound 18], the pIC50 at Kv1.3 potassium channel (Table 6) is more than 5.00; at hERG channel (Table 6), less than 4.52.
On to `Oc1cc(Cl)c(Cl)cc1Cc1ccncc1` [Compound 1, 2-[(pyridin-4-yl)methyl]-4,5-dichlorophenol], for which the pIC50 was more than 5.00 at Kv1.3 potassium channel (Table 6) and less than 4.52 at hERG channel (Table 6).
For `Oc1ccc(Cl)c(Cl)c1C(O)c1ccncc1` (single isomer, unassigned) [Compound 37, 3,4-dichloro-2-(hydroxy(pyridin-4-yl)methyl)phenol], the pIC50 is more than 6.00 on Kv1.3 potassium channel (Table 6) and less than 4.52 on hERG channel (Table 6).
On the same counts, the results for `O=C(N[C@H](c1ccncc1)c1c(O)ccc(Cl)c1Cl)[C@@H]1CCCN1` (single isomer, unassigned) [Compound 68] are more than 6.00 and more than 4.52.
Regarding `O=C(NC(c1ccncc1)c1c(O)ccc(Cl)c1Cl)C1CNC1` (single isomer, unassigned) [Compound 50, N-[(2,3-dichloro-6-hydroxyphenyl)(pyridin-4-yl)methyl]azetidine-3-carboxamide], the pIC50 is more than 6.00 on Kv1.3 potassium channel (Table 6) and less than 4.52 on hERG channel (Table 6).
The like results for `O=C(NC(c1ccncc1)c1c(O)ccc(Cl)c1Cl)C1CNC1` (stereo not drawn) [Compound 42, N-[(2,3-dichloro-6-hydroxyphenyl)(pyridin-4-yl)methyl]azetidine-3-carboxamide] were, in that order, more than 6.00 and less than 4.52.
On to `Nc1cc(C(O)c2c(O)ccc(Cl)c2Cl)ccn1` (single isomer, unassigned) [Compound 45, 2-[(2-aminopyridin-4-yl)(hydroxy)methyl]-3,4-dichlorophenol], for which the pIC50 was more than 6.00 on Kv1.3 potassium channel (Table 6) and less than 4.52 on hERG channel (Table 6).
As to `Oc1ccc(Cl)c(Cl)c1C(O)c1ccncc1` (stereo not drawn) [Compound 29, 3,4-dichloro-2-[hydroxy(pyridin-4-yl)methyl]phenol], the values for the pIC50 on Kv1.3 potassium channel (Table 6) and at hERG channel (Table 6) were more than 6.00 and less than 4.52, respectively.
With `Oc1cc(Cl)c(Cl)cc1C(O)c1ccncc1` (stereo not drawn) [Compound 27, 4,5-dichloro-2-[hydroxy(pyridin-4-yl)methyl]phenol], the pIC50 on Kv1.3 potassium channel (Table 6) is more than 5.00; at hERG channel (Table 6) it was less than 4.52.
On to `NC(c1ccc2c(c1)CNC2)c1cc(Cl)c(Cl)cc1O` (stereo not drawn) [Compound 21, 2-[amino(2,3-dihydro-1H-isoindol-5-yl)methyl]-4,5-dichlorophenol], for which the pIC50 on Kv1.3 potassium channel (Table 6) was more than 6.00; on hERG channel (Table 6) it was more than 4.52.
Consider `CC(=O)NC(c1ccncc1)c1c(O)ccc(Cl)c1Cl` (stereo not drawn) [Compound 20, N-[(2,3-dichloro-6-hydroxyphenyl)(pyridin-4-yl)methyl]acetamide], for which the pIC50 was more than 6.00 on Kv1.3 potassium channel (Table 6) and less than 4.52 at hERG channel (Table 6).
As for `O=C(NC(c1ccncc1)c1cc(Cl)c(Cl)cc1O)C1CNC1` (stereo not drawn) [Compound 26, N-[(4,5-dichloro-2-hydroxyphenyl)(pyridin-4-yl)methyl]azetidine-3-carboxamide], the pIC50 was more than 6.00 at Kv1.3 potassium channel (Table 6) and less than 4.52 on hERG channel (Table 6).
`Nc1ccc(Cc2cc(Cl)c(Cl)cc2O)cn1` [Compound 8, 2-[(6-aminopyridin-3-yl)methyl]-4,5-dichlorophenol]: the pIC50 on Kv1.3 potassium channel (Table 6) was more than 5.00; at hERG channel (Table 6), more than 4.52.
On the same counts, the results for `NC(c1ccncc1)c1c(O)ccc2ccccc12` (stereo not drawn) [Compound 17, 1-[amino(pyridin-4-yl)methyl]naphthalen-2-ol] are more than 5.00 and more than 4.52.
As to `C[C@H](NC(=O)C1CNC1)c1c(O)ccc(Cl)c1Cl` [Compound 76, N-[(1S)-1-(2,3-dichloro-6-hydroxyphenyl)ethyl]azetidine-3-carboxamide], the values for the pIC50 at Kv1.3 potassium channel (Table 7) and at hERG channel (Table 7) were more than 6.00 and less than 4.52, respectively.
With `Cc1cnccc1C(O)c1c(O)ccc(Cl)c1Cl` (stereo not drawn) [Compound 39, 3,4-dichloro-2-[hydroxy(3-methylpyridin-4-yl)methyl]phenol], the pIC50 on Kv1.3 potassium channel (Table 6) is more than 6.00; at hERG channel (Table 6), less than 4.52.
Turning to `Nc1ccc(C(O)c2c(O)ccc(Cl)c2Cl)cn1` (stereo not drawn) [Compound 40, 2-[(6-aminopyridin-3-yl)(hydroxy)methyl]-3,4-dichlorophenol], the pIC50 was more than 6.00 on Kv1.3 potassium channel (Table 6) and more than 4.52 on hERG channel (Table 6).
The like results for `Oc1ccc(Cl)c(Cl)c1C(O)c1ccncc1` (single isomer, unassigned) [Compound 34, 3,4-dichloro-2-(hydroxy(pyridin-4-yl)methyl)phenol] were, in that order, more than 4.52 and less than 4.52.
On to `CC(NC(=O)C1CNC1)c1c(O)ccc(Br)c1Cl` (stereo in doubt) [Compound 91, N-[(1R)-1-3-bromo-2-chloro-6-hydroxyphenyl) ethyl]azetidine-3-carboxamide], for which the figures for the pIC50 on Kv1.3 potassium channel (Table 7) and on hERG channel (Table 7) were more than 6.00 and less than 4.52, respectively.
Regarding `NC(=O)c1ccc(C(O)c2c(O)ccc(Cl)c2Cl)cc1` (stereo not drawn) [Compound 64, 4-[(2,3-dichloro-6-hydroxyphenyl)(hydroxy)methyl]benzamide], the pIC50 at Kv1.3 potassium channel (Table 6) is more than 6.00; on hERG channel (Table 6), less than 4.52.
In the case of `Cc1cnccc1C(O)c1c(O)ccc(Cl)c1Cl` (single isomer, unassigned) [Compound 46, 3,4-dichloro-2-[hydroxy(3-methylpyridin-4-yl)methyl]phenol], the pIC50 is more than 6.00 on Kv1.3 potassium channel (Table 6) and less than 4.52 on hERG channel (Table 6).
The like results for `NCc1cc(C(O)c2c(O)ccc(Cl)c2Cl)ccn1` (single isomer, unassigned) [Compound 53, 2-((2-(aminomethyl)pyridin-4-yl)(hydroxy)methyl)-3,4-dichlorophenol] were, in that order, more than 6.00 and less than 4.52.
For the molecule `Cc1cc(O)c([C@H](N)CNC(=O)C2CNC2)cc1Cl` [Compound 94, N-[(2S)-2-amino-2-(5-chloro-2-hydroxy-4-methylphenyl)ethyl]azetidine-3-carboxamide], the pIC50 at Kv1.3 potassium channel (Table 7) was more than 6.00; at hERG channel (Table 7), less than 4.52.
For `Nc1cc(C(O)c2c(O)ccc(Cl)c2Cl)ccn1` (stereo not drawn) [Compound 36, 2-[(2-aminopyridin-4-yl)(hydroxy)methyl]-3,4-dichlorophenol], the pIC50 is more than 6.00 on Kv1.3 potassium channel (Table 6) and less than 4.52 on hERG channel (Table 6).
Turning to `Nc1cc(Cc2cc(Cl)c(Cl)cc2O)ccn1` [Compound 2, 2-[(2-aminopyridin-4-yl)methyl]-4,5-dichlorophenol], the pIC50 on Kv1.3 potassium channel (Table 6) is more than 5.00; at hERG channel (Table 6), more than 4.52.
